Results as given in patent publication US9266908B2, “Inhibitors of arginase and their therapeutic applications” (MARS, INCORPORATED, priority 2011, dated 2016).

How the values were obtained:
human arginase I (ARG I) = molecular target: T1, human arginase I (ARG I) (Homo sapiens, UniProt P05089); test: Inhibition of arginase I, spectrophotometric urea assay at 530 nm
T1 sequence (P05089 1-322): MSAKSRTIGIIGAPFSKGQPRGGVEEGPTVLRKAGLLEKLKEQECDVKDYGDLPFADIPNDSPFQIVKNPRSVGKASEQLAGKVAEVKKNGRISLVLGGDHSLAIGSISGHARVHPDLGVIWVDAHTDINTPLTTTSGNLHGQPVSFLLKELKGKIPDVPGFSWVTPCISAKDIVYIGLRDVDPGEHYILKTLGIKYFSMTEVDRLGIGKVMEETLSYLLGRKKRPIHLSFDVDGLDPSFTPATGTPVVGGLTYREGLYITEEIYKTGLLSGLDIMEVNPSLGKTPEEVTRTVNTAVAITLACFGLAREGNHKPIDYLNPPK

arginase II (ARG II) = molecular target: T2, arginase II (ARG II) (Homo sapiens, UniProt P78540); test: Inhibition of arginase II, spectrophotometric urea assay at 530 nm
T2 sequence (P78540 23-354): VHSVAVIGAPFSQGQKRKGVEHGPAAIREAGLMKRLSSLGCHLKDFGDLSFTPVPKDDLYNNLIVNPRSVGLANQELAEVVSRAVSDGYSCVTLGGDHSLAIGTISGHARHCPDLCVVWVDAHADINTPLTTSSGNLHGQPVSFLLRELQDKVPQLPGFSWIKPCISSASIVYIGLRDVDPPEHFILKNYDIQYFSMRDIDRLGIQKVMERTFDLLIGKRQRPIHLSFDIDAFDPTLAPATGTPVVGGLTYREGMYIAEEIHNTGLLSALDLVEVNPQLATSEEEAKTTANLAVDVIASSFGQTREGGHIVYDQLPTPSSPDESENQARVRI
Description: Inhibition of arginase I (ARG I) and arginase II (ARG II) by the inventive compounds is followed spectrophotometrically at 530 nm. […] Solutions of arginase I and II are prepared in 100 mM sodium phosphate buffer, pH 7.4 containing 1 mg/ml of OVA to give an arginase stock solution at a final concentration of 100 ng/ml.
To each well of a 96-well microtiter plate is add 40 μl of enzyme, 10 μl of an inventive compound and 10 μl of enzyme substrate (L-arginine+ manganese sulfate). For wells that are used as positive controls, only the enzyme and its substrate are added, while wells used as negative controls contain only manganese sulfate.
After incubating the microtiter plate at 37° C. for 60 minutes, 150 μl of a urea reagent obtained by combining equal proportions (1:1) of reagents A and B is added to each well of the microtiter plate to stop the reaction. The urea reagent is made just before use by combining Reagent A (10 mM o-phthaldialdehyde, and 0.4% polyoxyethylene (23) lauryl ether (w/v) in 1.8 M sulfuric acid) with Reagent B (1.3 mM primaquine diphosphate, 0.4% polyoxyethylene (23) lauryl ether (w/v), 130 mM boric acid in 3.6 M sulfuric acid). After quenching the reaction mixture, the microtiter plate is allowed to stand for an additional 10 minutes at room temperature to allow color development. […] The normalized OD is then used to generate a dose-response curve by plotting the normalized OD values against log [concentration] and using regression analysis to compute the IC50 values.

Structure (SMILES)	IC50 (human arginase I (ARG I))	IC50 (arginase II (ARG II))
NC(CCCCB(O)O)(C(=O)O)[C@H]1C[C@@H](NCC2CCN(c3ccc(C(=O)O)cc3)CC2)C1 (mixture of isomers) [Example 59, 4-(4-(((1R,3s)-3-((S)-1-amino-5-borono-1-carboxypentyl)cyclobutylamino)methyl)piperidin-1-yl)benzoic acid]	26 to 100 nM	26 to 100 nM
NC(CCCCB(O)O)(C(=O)O)[C@H]1C[C@H](N(Cc2ccccc2)Cc2ccccc2)C1 (relative stereo) [Example 28, (S)-2-amino-6-borono-2-((1r,3S)-3-(dibenzylamino)cyclobutyl)hexanoic acid]	> 1500 nM	> 1500 nM
NC(CCCCB(O)O)(C(=O)O)[C@H]1C[C@@H](NCc2cccc(-c3ccccc3)c2)C1 (stereo partly drawn) [Example 7, (S)-2-amino-2-((1s,3R)-3-(biphenyl-3-ylmethylamino)cyclobutyl)-6-boronohexanoic acid]	26 to 100 nM	26 to 100 nM
CNC(CCCCB(O)O)(CCN1CCc2c(Cl)cccc2C1)C(=O)O (stereo not shown) [Example 31, 6-borono-2-(2-(5-chloro-3,4-dihydroisoquinolin-2(1H)-yl)ethyl)-2-(methylamino)hexanoic acid]	101 to 500 nM	101 to 500 nM
CNC(CCCCB(O)O)(CCN1CCc2ccccc2C1)C(=O)O (stereo not shown) [Example 32, 6-borono-2-(2-(3,4-dihydroisoquinolin-2(1H)-yl)ethyl)-2-(methylamino)hexanoic acid]	101 to 500 nM	101 to 500 nM
CNC(CCCCB(O)O)(CCN1CCC(c2ccc(Cl)cc2)CC1)C(=O)O (stereo not shown) [Example 37, 6-borono-2-(2-(4-(4-chlorophenyl)piperidin-1-yl)ethyl)-2-(methylamino)hexanoic acid]	101 to 500 nM	101 to 500 nM
NC(CCCCB(O)O)(CCCN1CCCC1)C(=O)O (stereo not shown) [Example 38, 2-amino-6-borono-2-(3-(pyrrolidin-1-yl)propyl)hexanoic acid]	101 to 500 nM	101 to 500 nM
NC(CCCCB(O)O)(C(=O)O)[C@@H]1CC[C@H](NCc2ccc(-c3ccccc3)cc2)C1 (stereo partly shown) [Example 42]	26 to 100 nM	26 to 100 nM
NC(CCCCB(O)O)(C(=O)O)[C@H]1C[C@@H](NCCc2ccc(-c3ccccc3)cc2)C1 (stereo partly drawn) [Example 65, (S)-2-amino-2-((1s,3R)-3-(2-(biphenyl-4-yl)ethylamino)cyclobutyl)-6-boronohexanoic acid]	26 to 100 nM	0.1 to 25 nM
N[C@](CCCCB(O)O)(CCNC1Cc2ccccc2C1)C(=O)O [Example 66, (R)-2-amino-6-borono-2-(2-(2,3-dihydro-1H-inden-2-ylamino)ethyl)hexanoic acid]	101 to 500 nM	101 to 500 nM
CCCN(C)CC[C@](N)(CCCCB(O)O)C(=O)O [Example 69, (R)-2-amino-6-borono-2-(2-(methyl(propyl)amino)ethyl)hexanoic acid]	101 to 500 nM	101 to 500 nM
N[C@](CCCCB(O)O)(CCN1Cc2ccccc2C1)C(=O)O [Example 72, (R)-2-amino-6-borono-2-(2-(isoindolin-2-yl)ethyl)hexanoic acid]	101 to 500 nM	501 to 1500 nM
NC1(c2ccc(Cl)cc2)CC(C(N)(CCCCB(O)O)C(=O)O)C1 (stereo not shown) [Example 73, 2-amino-2-(3-amino-3-(4-chlorophenyl)cyclobutyl)-6-boronohexanoic acid]	501 to 1500 nM	101 to 500 nM
NC1(Cc2ccc(Cl)cc2)CC(C(N)(CCCCB(O)O)C(=O)O)C1 (stereo not shown) [Example 74, 2-amino-2-(3-amino-3-(4-chlorobenzyl)cyclobutyl)-6-boronohexanoic acid]	101 to 500 nM	101 to 500 nM

Second part, the molecule after the results:

IC50 (human arginase I (ARG I))	IC50 (arginase II (ARG II))	Structure (SMILES)
	26 to 100 nM	NC(CCCCB(O)O)(C(=O)O)[C@H]1C[C@@H](NCCCc2ccccc2)C1 (stereo partly drawn) [Example 1, (S)-2-amino-6-borono-2-((1s,3R)-3-(3-phenylpropylamino)cyclobutyl) hexanoic acid]
26 to 100 nM	0.1 to 25 nM	NC(CCCCB(O)O)(C(=O)O)[C@H]1C[C@@H](NCCCc2cc(F)cc(Cl)c2)C1 (stereo partly drawn) [Example 2, (S)-2-amino-6-borono-2-((1s,3R)-3-(3-(3-chloro-5-fluorophenyl)propylamino)cyclobutyl)hexanoic acid]
26 to 100 nM	26 to 100 nM	NC(CCCCB(O)O)(C(=O)O)[C@H]1C[C@@H](NCCc2ccc(F)c(F)c2)C1 (stereo partly drawn) [Example 3, (S)-2-amino-6-borono-2-((1s,3R)-3-(3,4-difluorophenethylamino)cyclobutyl)hexanoic acid]
26 to 100 nM	26 to 100 nM	NC(CCCCB(O)O)(C(=O)O)[C@H]1C[C@@H](NCCc2ccc(Cl)cc2Cl)C1 (stereo partly drawn) [Example 4, (S)-2-amino-6-borono-2-((1s,3R)-3-(2,4-dichlorophenethylamino)cyclobutyl)hexanoic acid]
26 to 100 nM	26 to 100 nM	NC(CCCCB(O)O)(C(=O)O)[C@H]1C[C@@H](NC[C@@H]2Cc3ccccc3CN2)C1 (stereo partly drawn) [Example 14, (S)-2-amino-6-borono-2-((1R,3R)-3-(((S)-1,2,3,4-tetrahydroisoquinolin-3-yl)methylamino)cyclobutyl)hexanoic acid]
26 to 100 nM	26 to 100 nM	NC(CCCCB(O)O)(C(=O)O)[C@H]1C[C@@H](NCc2ccc(O)cc2)C1 (stereo partly drawn) [Example 20, (S)-2-amino-6-borono-2-((1s,3R)-3-(4-hydroxybenzylamino)cyclobutyl)hexanoic acid]
101 to 500 nM	101 to 500 nM	NC(CCCCB(O)O)(C(=O)O)[C@H]1C[C@@H](N2Cc3ccccc3C2)C1 (stereo partly drawn) [Example 29, 2-amino-6-borono-2-((1s,3R)-3-(isoindolin-2-yl)cyclobutyl)hexanoic acid]
101 to 500 nM	101 to 500 nM	CNC(CCCCB(O)O)(CCN1CCC(C)(C)CC1)C(=O)O (stereo not shown) [Example 34, 6-borono-2-(2-(4,4-dimethylpiperidin-1-yl)ethyl)-2-(methylamino)hexanoic acid]
26 to 100 nM	101 to 500 nM	CC(C)NCC[C@](N)(CCCCB(O)O)C(=O)O [Example 70, (R)-2-amino-6-borono-2-(2-(isopropylamino)ethyl)hexanoic acid]
101 to 500 nM	101 to 500 nM	CC(C)CNCC[C@](N)(CCCCB(O)O)C(=O)O [Example 71, (R)-2-amino-6-borono-2-(2-(isobutylamino)ethyl)hexanoic acid]
101 to 500 nM	101 to 500 nM	CNC(CCCCB(O)O)(C(=O)O)[C@H]1C[C@@H](N)C1 (stereo partly drawn) [Example 75, (S)-2-((1s,3R)-3-aminocyclobutyl)-6-borono-2-(methylamino)hexanoic acid]
